Legend:
[1] = test system: FGF receptor type 1 (FGFR1); assay: Competition binding to FGF-receptor type 1 on NIH 3T3 cells; settings: compared with FGF-2
[2] = test system: cell-associated urokinase-type plasminogen activator (uPA) activity in ABAE cells; assay: Urokinase-type plasminogen activator induction in ABAE cells; assay type: cell-based, bovine; settings: 24 hours, compared with FGF-2
Description: Urokinase-type plasminogen activator induction by the FGF mutants is evaluated. Adult bovine aortic endothelial (ABAE) cells are seeded at 20,000 cells/well in 96-well plates and maintained in DMEM containing 10% calf serum (Hyclone, Logan, Utah) supplemented with penicillin (100 units/ml), streptomycin (100 μg/ml) and L-glutamine (2 mM) and different concentrations of FGF-2 or mutants. After 24 hours, the cells are washed with phosphate-buffered saline and lysed in 60 mM Tris-HCl, pH 8.5, containing 0.05% Triton® X-100. Cell-associated urokinase-type plasminogen activator (uPA) activity is measured as described by Presta, et al., cited above, using the plasmin chromogenic substrate D-norleucyl-hexahydrotyrosyllysine p-nitroanilide acetate (American Diagnostics, Greenwich, Conn.). Cell-associated protein concentrations are determined using Coomassie blue binding to protein. The results are plotted in FIG. 5.

ABAE cells = assay: In vitro angiogenesis: capillary-like tube formation by ABAE cells on collagen gel; assay type: cell-based, bovine; settings: ABAE cells on type I collagen gel, 48 hours; compared with wild-type FGF-2
Description: In vitro anglogenesis evaluations are made by observing whether the mutants induce capillary-like structures in ABAE cells cultured on a 3-dimensionalcollagen gel. Three-dimensional collagen gel plates (24-well) are prepared by adding 0.5 ml chilled solution of 0.7 mg/ml rat-tail type I collagen (Becton Dickinson Labwares, Bedford, Mass.) containing DMEM and adjusting to neutral pH with NaHCO3 to each well. After formation of collagen gel (about 1-2 mm thickness), ABAE cells are seeded at 50,000 cells/well. The cultures are maintained at 37° C. in DMEM containing 10% calf serum (Hyclone, Logan, Utah) supplemented with penicillin (100 units/ml), streptomycin (100 μg/ml) and L-glutamine (2 mM) until the cultures reach confluency, usually in 5 days by which time the cells form a monolayer on the gel. The medium is then replaced with fresh medium containing different concentrations of FGF-2 or mutants. […]
The abundance of the capillary-like structures formed by ABAE cells is analyzed by using a Kontron IBAS Image Analyzer assisted with a Hamamatsu C2400 video camera and a Zeiss Axioshop microscope. […] The extent of in vitro angiogenesis is then measured as a percentage of the white areas. […] Three to four areas of each well are examined by image analysis and the mean value and standard deviation are determined. […]

[3] = test system: soluble FGF receptor 1 (FGFR-1; flg); assay: Competition binding to soluble FGFR1 (displacement of 125I-FGF-2); design: species or system murine; settings: 200 ng/ml heparin
Description: (§1) Binding of FGF proteins to different FGF receptors are determined in this example, by measuring the degree of competition for binding to different types of FGF-receptor proteins between a radioiodinated FGF protein and various unlabelled proteins, or by the direct binding of radioiodinated FGF's to various receptor proteins. Binding studies are confirmed by chemical cross-linking of the radioiodinated FGF to soluble receptors in the presence and absence of excess unlabelled FGF.
(§2) Soluble FGF receptor proteins are constructed by cloning of the extracellular region of murine FGF receptor 1 (FGFR-1; flg), FGF receptor 2 (FGFR-2; bek) or the KGF receptor (FGFR(IIIb); K-sam) into the alkaline phosphatase-tag expression vector, which encodes for a secreted form of placental alkaline phosphatase (AP). The FGF receptor alkaline phosphatase (FRAP) plasmids are cotransfected into NIH 3T3 cells by electroporation with a selectable neomycin resistance gene. Clonies are selected in G418 (600 μg/ml) and screened for secreted AP enzyme activity in the conditioned medium. Clones of each receptor which produced a high level of AP activity (2 to 4 A405 units/min/ml) are then used to produce conditioned medium for binding assays.
(§3) Components of the soluble receptor binding reaction mixture include FRAP-conditioned medium (0.24 OD units/min), 2 ng/ml^125 I-FGFs and 200 ng/ml heparin. The FGF:heparin:FRAP terniary complex is immunoprecipitated with 20 μl of a 1:1 slurry of anti-AP monoclonal antibodies coupled to protein A Sepharose®. All components are mixed at room temperature. The total volume is adjusted to 200 μl by addition of DMEM containing 0.1% bovine serum albumin. Binding is allowed to proceed for 1 to 2 hours at 24° C., after which time bound receptor complex or the ligand is recovered by centrifugation at 4° C. (10 s at 2,000×g). The pelleted material is washed twice with 500 μl of an ice cold buffer containing HEPES (20 mM), NaCl (150 mM), glycerol (10%) and Triton® X-100 (1%). ^125 I-FGF binding is quantitated by counting of the samples in a gamma counter (LKB). Alternatively, AP enzyme activity of the FRAP protein is determined by transferring the FRAP receptor bound to […] to a flat-bottom microtiter plate in a volume of 50 μl of PBS. The reaction is initiated by addition of substrate (50 μl of 2× solution of AP assay buffer containing 2M diethanoiamine, 1 mM MgCl2, 20 mM homoarginine and 12 mM p-nitrophenyl phosphate). The reaction is followed at room temperature at 405 nm in a kinetic microplate reader.

[4] = test system: FGFR2(IIIb) (FGF-7 or KGF receptor); assay: Competition binding to soluble FGFR2(IIIb) (displacement of 125I-FGF-7); design: species or system murine
Description: as §1, §2, §3

FGFR1 = assay: Chemical cross-linking of 125I-FGF to soluble FGFR1; assay type: binding, murine; settings: with and without excess unlabelled FGF
Description: as §1, §2
(§4) Chemical cross-linking experiments are carried out at room temperature in a volume of 20 μl in siliconized 0.5-ml microcentrifuge tubes. The reaction mixtures contain FGF receptor immobilized to anti-AP monoclonal antibodies coupled to protein A Sepharose®, 200 ng/ml heparin, 2 ng/ml^125 I-bFGF, 20 mM phosphate buffer (pH 7.4), and 140 mM NaCl. After a 90 minute incubation, […] of a solution of disuccinimidyl suberate (Pierce) dissolved in dimethyl sulfoxide is added to give a final concentration of 0.15 mM, and the mixture incubated for an additional 30 minutes. The reaction is quenched by addition of […] of 200 mM ethanolamine-HCl (pH 8.0) for 30 min. The reaction mixtures are diluted 1:1 with 2× SDS-polyacrylamide gel electrophoresis loading buffer and electrophoresed on an SDS-12% polyacrylamide gel. Cross-linked FGF to the FGF receptor are detected by autoradiography on Kodak XAR film.

FGFR2(IIIb) = assay: Chemical cross-linking of 125I-FGF to soluble FGFR2(IIIb); assay type: binding, murine; settings: with and without excess unlabelled FGF
Description: as §1, §2, §4

Row | Binding to soluble FGFR1 (competition with 125I-FGF-2) [3] | Binding to soluble FGFR2(IIIb) (competition with 125I-FGF-7) ([4]; 200 ng/ml heparin) | Binding to FGFR2(IIIb), times less than that of FGF-7 or FGF-1 [4] | Substance | Competition binding curve to FGF receptor type 1 on NIH 3T3 cells [1] | Capability to induce urokinase-type plasminogen activator [2] | Induction of tube formation (capillary-like structures) (ABAE cells) | Cross-linking to FGFR1 (FGFR1) | Cross-linking to FGFR2(IIIb) (FGFR2(IIIb))
1 | bind equally well | do not bind | – | FGF-2LI: human FGF-2 with loop residues 118-122 replaced by Ala-Gln-Phe-Pro-Asn from human interleukin-1β (SEQ ID NO 15) | identical to that for FGF-2 | significantly reduced | much less than that by wild-type FGF-2 | bind | excluded from binding
2 | bind equally well | – | about 5 times | FGF-2LA: human FGF-2 with loop residues 118-122 replaced by Lys-Lys-His-Ala-Glu-Lys-His from bovine FGF-1 (SEQ ID NO 16) (KKHAEKH; printed: Lys-Lys-His-Ala-Glu-Lys-His) | identical to that for FGF-2 | significantly reduced | comparable with the wildtype | bind | bind
